Laboratory results taken from US20260176260A1, “DUAL RAF AND TUBULIN INHIBITORS AND METHODS OF USE THEREOF” (Deciphera Pharmaceuticals, LLC, priority 2023, published 2026).

Columns and labels:
C-Raf kinase = biological target: T1, C-Raf kinase (Homo sapiens, UniProt P04049, Y340D/Y341D); experiment: Biochemical assay for C-Raf (coupled pyruvate kinase/lactate dehydrogenase); details: Table 1, inhibition of biochemical activity; read-out: CRAF
T1 construct: C-Raf residues 306-end; Y340D, Y341D with N-; purchased Sigma
T1 sequence (P04049 307-648 Y340D/Y341D): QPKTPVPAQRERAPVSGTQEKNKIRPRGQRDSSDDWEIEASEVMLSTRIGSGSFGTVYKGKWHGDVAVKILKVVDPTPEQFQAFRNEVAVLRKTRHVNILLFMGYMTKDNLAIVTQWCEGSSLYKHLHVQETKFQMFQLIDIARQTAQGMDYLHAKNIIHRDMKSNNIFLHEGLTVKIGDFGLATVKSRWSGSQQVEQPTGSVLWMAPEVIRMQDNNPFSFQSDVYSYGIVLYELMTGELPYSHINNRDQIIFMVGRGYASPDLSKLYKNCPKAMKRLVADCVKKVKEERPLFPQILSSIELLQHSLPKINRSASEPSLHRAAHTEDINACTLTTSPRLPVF

B-Raf kinase = biological target: T2, B-Raf kinase (Homo sapiens, UniProt P15056); experiment: Biochemical assay for B-Raf (coupled pyruvate kinase/lactate dehydrogenase); details: Table 1, inhibition of biochemical activity; read-out: BRAF
T2 construct: purchased Sigma
T2 sequence (P15056 416-766): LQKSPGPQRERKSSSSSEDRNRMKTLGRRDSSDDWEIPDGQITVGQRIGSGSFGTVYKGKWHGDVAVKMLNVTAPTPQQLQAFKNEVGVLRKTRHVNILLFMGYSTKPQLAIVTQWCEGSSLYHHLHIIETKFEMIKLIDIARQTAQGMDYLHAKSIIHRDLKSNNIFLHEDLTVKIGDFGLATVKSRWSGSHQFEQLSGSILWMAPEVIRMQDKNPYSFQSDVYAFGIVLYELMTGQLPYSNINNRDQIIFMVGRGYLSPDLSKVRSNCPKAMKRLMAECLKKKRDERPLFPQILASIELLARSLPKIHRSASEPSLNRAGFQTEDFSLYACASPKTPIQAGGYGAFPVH

Pa16c cells = experiment: Pa16c cell proliferation assay (resazurin); format: cell-based; details: Table 2, inhibition of cell proliferation
Experimental: Pa16c cells are obtained from Dr. Channing Der, University of North Carolina at Chapel Hill. Briefly, cells are grown in Dulbecco's Modified Eagle Medium supplemented with 10% characterized fetal bovine serum (Invitrogen, Carlsbad, CA) and 1% Penicillin/Streptomycin/L-Glutamine at 37° C., 5% CO2, and 95% humidity. Cells are expanded until reaching 70-95% confluency at which point they are sub-cultured or harvested for assay use. A serial dilution of test compound is dispensed into a 384-well black clear bottom plate in triplicate. 750 cells are added per well in 50 μL complete growth medium in the 384-well plate. Plates are incubated for 67 to 72 h at 37° C., 5% CO2, and 95% humidity. At the end of the incubation, 40 μL of a […] solution of resazurin (Sigma, St. Louis, MO) in PBS is added to each well of the plate and plates are incubated for an additional 18 to 24 h at 37° C., 5% CO2, and 95% humidity. Plates are read on a Synergy2 or equivalent reader (Biotek, Winooski, VT) using an excitation of 540 nm and an emission of 600 nm. Data is analyzed using Prism software (Graphpad, San Diego, CA) to calculate IC50 values.

HCT-116 cells = experiment: HCT-116 cell proliferation assay (resazurin); format: cell-based; details: Homo sapiens; Table 2, inhibition of cell proliferation; read-out: HCT-116
Experimental: HCT-116 cells (catalog #CCL-247) are obtained from the American Type Culture Collect (ATCC, Manassas, VA). Briefly, cells are grown in McCoy's 5A supplemented with 10% characterized fetal bovine serum (Invitrogen, Carlsbad, CA) and 1% Penicillin/Streptomycin/L-Glutamine at 37° C., 5% CO2, and 95% humidity. Cells are expanded until reaching 70-95% confluency at which point they are sub-cultured or harvested for assay use. A serial dilution of test compound is dispensed into a 384-well black clear bottom plate in triplicate. 375 cells are added per well in 50 μL complete growth medium in the 384-well plate. Plates are incubated for 67 to 72 h at 37° C., 5% CO2, and 95% humidity. At the end of the incubation, 40 μL of a […] solution of resazurin (Sigma, St. Louis, MO) in PBS is added to each well of the plate and plates are incubated for an additional 4 to 5 h at 37° C., 5% CO2, and 95% humidity. Plates are read on a Synergy2 or equivalent reader (Biotek, Winooski, VT) using an excitation of 540 nm and an emission of 600 nm. Data is analyzed using Prism software (Graphpad, San Diego, CA) to calculate IC50 values.

HPAF-II cells = experiment: HPAF-II cell proliferation assay (resazurin); format: cell-based; details: Homo sapiens; Table 2, inhibition of cell proliferation; read-out: HPAF-II
Experimental: HPAF-II cells (catalog #CRL-1997) are obtained from the American Type Culture Collect (ATCC, Manassas, VA). Briefly, cells are grown in Minimum Essential Media supplemented with 10% characterized fetal bovine serum (Invitrogen, Carlsbad, CA) and 1% Penicillin/Streptomycin/L-Glutamine at 37° C., 5% CO2, and 95% humidity. Cells are expanded until reaching 70-95% confluency at which point they are sub-cultured or harvested for assay use. A serial dilution of test compound is dispensed into a 384-well black clear bottom plate in triplicate. 750 cells are added per well in 50 μL complete growth medium in the 384-well plate. Plates are incubated for 115 to 120 h at 37° C., 5% CO2, and 95% humidity. At the end of the incubation, 40 μL of a […] solution of resazurin (Sigma, St. Louis, MO) in PBS is added to each well of the plate and plates are incubated for an additional 18 to 24 h at 37° C., 5% CO2, and 95% humidity. Plates are read on a Synergy2 or equivalent reader (Biotek, Winooski, VT) using an excitation of 540 nm and an emission of 600 nm. Data is analyzed using Prism software (Graphpad, San Diego, CA) to calculate IC50 values.

MiaPaca-2 cells = experiment: MiaPaca-2 cell proliferation assay (resazurin); format: cell-based; details: Homo sapiens, MIA PaCa-2; Table 2, inhibition of cell proliferation; read-out: MiaPaca-2
Experimental: MiaPaca-2 cells (catalog #CRL-1420) are obtained from the American Type Culture Collect (ATTC, Manassas, VA). Briefly, cells were grown in DMVEM supplemented with […] fetal bovine serum (Invitrogen, Carlsbad, CA), 2.5% New Zealand sourced horse serum and 1% Penicillin/Streptomycin/L-Glutamine at 37° C., […], and […]. Cells are expanded until reaching […] at which point they are sub-cultured or harvested for assay use. For assays completed in 96-well plates, a serial dilution of test compound is dispensed into a 96-well black clear bottom plate in triplicate. Three thousand cells are added per well in 200 μL complete growth medium in the 96-well plate. Plates are incubated for 67 to 72 h at 37° C., 5% CO2, and 95% humidity. At the end of the incubation, 40 μL of a […] solution of resazurin (Sigma, St. Louis, MO) in PBS is added to each well of the plate and plates are incubated for an additional 5 to 6 h at 37° C., 5% CO2, and 95% humidity. For 384-well assays, a threefold, 8-point serial dilution of compound was spotted column wise into a 384 well black, clear bottom, tissue culture treated plate using the Beckman Coulter Echo 650. Likewise, a threefold, 8-point serial dilution of cobimetinib was spotted row wise into the 384 well black, clear bottom plate containing compound. DMSO concentration was constant across all wells at 0.4%. Seven hundred fifty cells are added per well in 50 μL complete growth medium in each 384-well plate. Plates are incubated for 67 to 72 h at 37° C., 5% CO2, and 95% humidity. At the end of the incubation, 10 μL of a 440 μM solution of resazurin (Sigma, St. Louis, MO) in PBS is added to each well of the plate and plates are incubated for an additional 4 to 6 h at 37° C., 5% CO2, and 95% humidity. Plates are read on a Synergy2 or equivalent reader (Biotek, Winooski VT) using an excitation of 540 nm and an emission of 600 nm. Data is analyzed using Prism software (Graphpad, San Diego, CA) to calculate IC50 values.

SMILES	IC50 (C-Raf kinase)	IC50 (B-Raf kinase)	IC50 (Pa16c cells)	IC50 (HCT-116 cells)	IC50 (HPAF-II cells)	IC50 (MiaPaca-2 cells)
CNC(=O)c1cc(-c2cc(-c3cc(NC(=O)c4cc(C(C)(F)F)cnn4)ccc3C)cc(OCCO)n2)ccn1 [Example 43]	< 100 nM	< 100 nM	100 to 500 nM	100 to 500 nM	100 to 500 nM	500 to 1000 nM
CNC(=O)c1cc(-c2cc(-c3cc(NC(=O)c4cncc(C(F)(F)F)c4)ccc3C)cc(C)n2)ccn1 [Example 13]	< 100 nM	100 to 500 nM	1000 to 10000 nM	1000 to 10000 nM	1000 to 10000 nM	1000 to 10000 nM
Cc1cc(-c2cc(NC(=O)c3cc(C(F)(F)F)cnn3)ccc2C)cc(-c2ccnc(C(N)=O)c2)n1 [Example 7]	< 100 nM	100 to 500 nM	100 to 500 nM	100 to 500 nM	100 to 500 nM	100 to 500 nM
CNC(=O)c1cc(-c2cncc(-c3cc(NC(=O)c4cc(C#N)cnn4)ccc3C)c2)ccn1 [Example 46]	100 to 500 nM	100 to 500 nM	1000 to 10000 nM	500 to 1000 nM	1000 to 10000 nM	1000 to 10000 nM
CNC(=O)c1cc(-c2nc(NCCO)cc(-c3cc(NC(=O)c4cc(C5CC5)cnn4)ccc3C)n2)ccn1 [Example 22]	< 100 nM	< 100 nM	1000 to 10000 nM	1000 to 10000 nM	1000 to 10000 nM	1000 to 10000 nM
Cc1ccc(NC(=O)c2cc(C(F)(F)F)cnn2)cc1-c1ccnc(-c2ccnc(C(N)=O)c2)c1 [Example 3, 4-(2-methyl-5-(5-(trifluoromethyl)pyridazine-3-carboxamido)phenyl)-[2,4′-bipyridine]-2′-carboxamide]	< 100 nM	< 100 nM	< 100 nM	< 100 nM	100 to 500 nM	< 100 nM
CNC(=O)c1cc(-c2cc(-c3cc(NC(=O)c4cc(C(C)(F)F)cnn4)ccc3C)ccn2)ccn1 [Example 31]	< 100 nM	< 100 nM	100 to 500 nM	100 to 500 nM	100 to 500 nM	100 to 500 nM
CNC(=O)c1cc(-c2cc(-c3cc(NC(=O)c4cc(C(F)(F)F)cnn4)ccc3C)cc(NC)n2)ccn1 [Example 47]	< 100 nM	< 100 nM	< 100 nM	< 100 nM	< 100 nM	< 100 nM
CNC(=O)c1cc(-c2cc(-c3cc(NC(=O)c4cc(C(F)(F)F)cnn4)ccc3C)nc(NCCO)n2)ccn1 [Example 19]	< 100 nM	< 100 nM	500 to 1000 nM	100 to 500 nM	100 to 500 nM	100 to 500 nM
CNC(=O)c1cc(-c2cc(N[C@H](C)CO)nc(-c3cc(NC(=O)c4cc(C(F)(F)F)cnn4)ccc3C)n2)ccn1 [Example 39]	100 to 500 nM	100 to 500 nM	1000 to 10000 nM	1000 to 10000 nM	1000 to 10000 nM	1000 to 10000 nM
CNC(=O)c1cc(-c2cc(-c3cc(NC(=O)c4cc(C(C)(F)F)cnn4)ccc3C)cc(NCCO)n2)ccn1 [Example 42]	< 100 nM	< 100 nM	100 to 500 nM	< 100 nM	100 to 500 nM	< 100 nM
CNC(=O)c1cc(-c2cc(-c3cc(NC(=O)c4cc(C5CC5)cnn4)ccc3C)nc(NCCO)n2)ccn1 [Example 8]	< 100 nM	< 100 nM	1000 to 10000 nM	100 to 500 nM	1000 to 10000 nM	500 to 1000 nM
CCc1ccc(NC(=O)c2cc(C(F)(F)F)cnn2)cc1-c1ccnc(-c2ccnc(C(=O)NC)c2)c1 [Example 37]	1000 to 10000 nM	1000 to 10000 nM	1000 to 10000 nM	1000 to 10000 nM	1000 to 10000 nM	1000 to 10000 nM
CNC(=O)c1cc(-c2cncc(-c3cc(NC(=O)c4cc(C(F)(F)F)cnn4)ccc3C)c2)ccn1 [Example 16]	< 100 nM	< 100 nM	1000 to 10000 nM	500 to 1000 nM	1000 to 10000 nM	500 to 1000 nM
